{"source": "ChEMBL document CHEMBL3865822", "about": "“New palbociclib analogues modified at the terminal piperazine ring and their anticancer activities” (Eur J Med Chem, 2016)", "key": {"[1]": {"test": "Cytotoxicity against human MCF7 cells assessed as reduction in cell viability after 48 hrs by CCK8 assay", "type": "functional, cell-based", "conditions": "MCF7, 48 h"}, "MCF7 [2]": {"system": "MCF7", "test": "Antitumor activity against human […] human MCF7 cells xenografted in RNU rat assessed as tumor growth inhibition at 100 mg/kg/day, ig administered for 14 days measured on day 15", "type": "functional, organism-based"}, "[3]": {"test": "Cytotoxicity against human MDA-MB-453 cells assessed as reduction in cell viability after 48 hrs by CCK8 assay", "type": "functional, cell-based", "conditions": "MDA-MB-453, 48 h"}, "[4]": {"test": "Cytotoxicity against human MDA-MB-231 cells assessed as reduction in cell viability after 48 hrs by CCK8 assay", "type": "functional, cell-based", "conditions": "MDA-MB-231, 48 h"}, "[5]": {"molecular_target": "Cyclin-dependent kinase 6 (Homo sapiens, UniProt Q00534)", "sequence (Q00534 whole entry)": "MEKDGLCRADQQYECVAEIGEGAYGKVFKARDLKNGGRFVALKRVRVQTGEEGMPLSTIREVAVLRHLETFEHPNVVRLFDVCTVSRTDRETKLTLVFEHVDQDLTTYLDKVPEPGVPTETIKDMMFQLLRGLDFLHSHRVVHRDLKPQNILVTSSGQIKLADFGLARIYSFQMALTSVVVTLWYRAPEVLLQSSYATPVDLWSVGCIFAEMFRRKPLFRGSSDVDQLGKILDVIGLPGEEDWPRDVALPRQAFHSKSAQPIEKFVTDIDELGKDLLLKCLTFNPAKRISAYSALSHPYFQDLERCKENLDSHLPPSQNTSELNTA", "test": "Inhibition of CDK6 (unknown origin) using histone H1 as substrate after 10 mins in presence of [gamma32P]ATP"}, "Rattus norvegicus [6]": {"system": "Rattus norvegicus", "test": "Toxicity in RNU rat xenografted with human MCF7 cells assessed as reduction in body weight at 128.8 mg/kg/day, ig administered for 14 days measured daily during compound dosing", "type": "organism-based", "conditions": "in vivo, po, 336 h"}, "MCF7 [7]": {"system": "MCF7", "test": "Antitumor activity against […] human MCF7 cells xenografted in RNU rat assessed as tumor growth inhibition at 128.8 mg/kg/day, ig administered for 14 days measured on day 15", "type": "functional, organism-based"}, "[8]": {"molecular_target": "Cyclin-dependent kinase 4 (Homo sapiens, UniProt P11802)", "sequence (P11802 whole entry)": "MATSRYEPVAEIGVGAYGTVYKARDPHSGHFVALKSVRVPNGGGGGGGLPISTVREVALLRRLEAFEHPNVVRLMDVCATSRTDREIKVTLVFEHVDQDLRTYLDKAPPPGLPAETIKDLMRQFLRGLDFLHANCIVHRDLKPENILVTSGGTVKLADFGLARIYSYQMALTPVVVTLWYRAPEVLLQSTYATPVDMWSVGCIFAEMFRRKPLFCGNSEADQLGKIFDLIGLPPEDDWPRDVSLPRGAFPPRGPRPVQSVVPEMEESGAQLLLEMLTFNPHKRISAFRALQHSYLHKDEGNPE", "test": "Inhibition of CDK4 (unknown origin) using histone H1 as substrate after 10 mins in presence of [gamma32P]ATP"}, "Rattus norvegicus [9]": {"system": "Rattus norvegicus", "test": "Toxicity in RNU rat xenografted with human MCF7 cells assessed as reduction in body weight at 122.4 mg/kg/day, ig administered for 14 days measured daily during compound dosing", "type": "organism-based", "conditions": "in vivo, po, 336 h"}, "MCF7 [10]": {"system": "MCF7", "test": "Antitumor activity against […] human MCF7 cells xenografted in RNU rat assessed as tumor growth inhibition at 122.4 mg/kg/day, ig administered for 14 days measured on day 15", "type": "functional, organism-based"}}, "note": "Activity calls are given as the source filed them. No cut-off for these calls is given here.", "data": [{"smiles": "COC(=O)N1CCN(c2ccc(Nc3ncc4c(C)c(C(C)=O)c(=O)n(C5CCCC5)c4n3)nc2)CC1", "values": [{"measurement": "IC50", "setting": "[1]", "result": "> 2000", "unit": "nM"}]}, {"smiles": "CC(=O)c1c(C)c2cnc(Nc3ccc(N4CCNCC4)cn3)nc2n(C2CCCC2)c1=O", "note": "[PALBOCICLIB]", "values": [{"measurement": "IC50", "setting": "[1]", "result": 240, "unit": "nM"}, {"measurement": "TGI", "setting": "MCF7 [2]", "result": "Active"}, {"measurement": "IC50", "setting": "[3]", "result": 137, "unit": "nM"}, {"measurement": "IC50", "setting": "[4]", "result": 580, "unit": "nM"}]}, {"smiles": "CCCOC(=O)N1CCN(c2ccc(Nc3ncc4c(C)c(C(C)=O)c(=O)n(C5CCCC5)c4n3)nc2)CC1", "values": [{"measurement": "IC50", "setting": "[1]", "result": "> 2000", "unit": "nM"}]}, {"smiles": "CCOC(=O)CN1CCN(c2ccc(Nc3ncc4c(C)c(C(C)=O)c(=O)n(C5CCCC5)c4n3)nc2)CC1", "values": [{"measurement": "IC50", "setting": "[1]", "result": "> 2000", "unit": "nM"}]}, {"smiles": "CC(=O)c1c(C)c2cnc(Nc3ccc(N4CCN(CCO)CC4)cn3)nc2n(C2CCCC2)c1=O", "values": [{"measurement": "IC50", "setting": "[1]", "result": 689, "unit": "nM"}]}, {"smiles": "CC(=O)c1c(C)c2cnc(Nc3ccc(N4CCN(CCC(=O)O)CC4)cn3)nc2n(C2CCCC2)c1=O", "values": [{"measurement": "IC50", "setting": "[1]", "result": "> 2000", "unit": "nM"}]}, {"smiles": "COCCCNCC(=O)N1CCN(c2ccc(Nc3ncc4c(C)c(C(C)=O)c(=O)n(C5CCCC5)c4n3)nc2)CC1", "values": [{"measurement": "IC50", "setting": "[5]", "result": 18, "unit": "nM"}, {"measurement": "IC50", "setting": "[1]", "result": 105, "unit": "nM"}, {"measurement": "Activity", "setting": "Rattus norvegicus [6]", "result": "Non-Toxic"}, {"measurement": "IC50", "setting": "[3]", "result": 93, "unit": "nM"}, {"measurement": "IC50", "setting": "[4]", "result": 559, "unit": "nM"}, {"measurement": "TGI", "setting": "MCF7 [7]", "result": "Active"}, {"measurement": "IC50", "setting": "[8]", "result": 13, "unit": "nM"}]}, {"smiles": "CCCC(=O)OCN1CCN(c2ccc(Nc3ncc4c(C)c(C(C)=O)c(=O)n(C5CCCC5)c4n3)nc2)CC1", "values": [{"measurement": "IC50", "setting": "[1]", "result": "> 2000", "unit": "nM"}]}, {"smiles": "CCCCOC(=O)N1CCN(c2ccc(Nc3ncc4c(C)c(C(C)=O)c(=O)n(C5CCCC5)c4n3)nc2)CC1", "values": [{"measurement": "IC50", "setting": "[1]", "result": "> 2000", "unit": "nM"}]}, {"smiles": "COCCN1CCN(c2ccc(Nc3ncc4c(C)c(C(C)=O)c(=O)n(C5CCCC5)c4n3)nc2)CC1", "values": [{"measurement": "IC50", "setting": "[1]", "result": 893, "unit": "nM"}]}, {"smiles": "CC(=O)c1c(C)c2cnc(Nc3ccc(N4CCN(C(=O)CCC(=O)O)CC4)cn3)nc2n(C2CCCC2)c1=O", "values": [{"measurement": "IC50", "setting": "[1]", "result": "> 2000", "unit": "nM"}]}, {"smiles": "CCN1CCN(c2ccc(Nc3ncc4c(C)c(C(C)=O)c(=O)n(C5CCCC5)c4n3)nc2)CC1", "values": [{"measurement": "IC50", "setting": "[5]", "result": 34, "unit": "nM"}, {"measurement": "IC50", "setting": "[1]", "result": 542, "unit": "nM"}, {"measurement": "IC50", "setting": "[3]", "result": 487, "unit": "nM"}, {"measurement": "IC50", "setting": "[4]", "result": "> 1000", "unit": "nM"}, {"measurement": "IC50", "setting": "[8]", "result": 25, "unit": "nM"}]}, {"smiles": "CCOC(=O)CCN1CCN(c2ccc(Nc3ncc4c(C)c(C(C)=O)c(=O)n(C5CCCC5)c4n3)nc2)CC1", "values": [{"measurement": "IC50", "setting": "[1]", "result": "> 2000", "unit": "nM"}]}, {"smiles": "CCCCCOC(=O)N1CCN(c2ccc(Nc3ncc4c(C)c(C(C)=O)c(=O)n(C5CCCC5)c4n3)nc2)CC1", "values": [{"measurement": "IC50", "setting": "[1]", "result": "> 2000", "unit": "nM"}]}, {"smiles": "CC(=O)OCOC(=O)N1CCN(c2ccc(Nc3ncc4c(C)c(C(C)=O)c(=O)n(C5CCCC5)c4n3)nc2)CC1", "values": [{"measurement": "IC50", "setting": "[5]", "result": 28, "unit": "nM"}, {"measurement": "IC50", "setting": "[1]", "result": 371, "unit": "nM"}, {"measurement": "IC50", "setting": "[3]", "result": 424, "unit": "nM"}, {"measurement": "IC50", "setting": "[4]", "result": "> 1000", "unit": "nM"}, {"measurement": "IC50", "setting": "[8]", "result": 32, "unit": "nM"}]}, {"smiles": "CC(=O)c1c(C)c2cnc(Nc3ccc(N4CCN(C(=O)CNCCN)CC4)cn3)nc2n(C2CCCC2)c1=O", "values": [{"measurement": "IC50", "setting": "[5]", "result": 23, "unit": "nM"}, {"measurement": "IC50", "setting": "[1]", "result": 223, "unit": "nM"}, {"measurement": "Activity", "setting": "Rattus norvegicus [9]", "result": "Non-Toxic"}, {"measurement": "IC50", "setting": "[3]", "result": 259, "unit": "nM"}, {"measurement": "IC50", "setting": "[4]", "result": 436, "unit": "nM"}, {"measurement": "TGI", "setting": "MCF7 [10]", "result": "Active"}, {"measurement": "IC50", "setting": "[8]", "result": 19, "unit": "nM"}]}, {"smiles": "CC(=O)c1c(C)c2cnc(Nc3ccc(N4CCN(C(C)=O)CC4)cn3)nc2n(C2CCCC2)c1=O", "values": [{"measurement": "IC50", "setting": "[1]", "result": "> 2000", "unit": "nM"}]}, {"smiles": "CC(=O)c1c(C)c2cnc(Nc3ccc(N4CCN(C(=O)CC#N)CC4)cn3)nc2n(C2CCCC2)c1=O", "values": [{"measurement": "IC50", "setting": "[1]", "result": 1520, "unit": "nM"}]}, {"smiles": "CC(=O)c1c(C)c2cnc(Nc3ccc(N4CCN(C(=O)OC(C)C)CC4)cn3)nc2n(C2CCCC2)c1=O", "values": [{"measurement": "IC50", "setting": "[1]", "result": "> 2000", "unit": "nM"}]}, {"smiles": "CC(=O)c1c(C)c2cnc(Nc3ccc(N4CCN(C(=O)OCC(C)C)CC4)cn3)nc2n(C2CCCC2)c1=O", "values": [{"measurement": "IC50", "setting": "[1]", "result": "> 2000", "unit": "nM"}]}]}
